Experimental findings from paper PMC9657749, “Cytotoxic Activity and Docking Studies of 2-arenoxybenzaldehyde N-acyl Hydrazone and 1,3,4-Oxadiazole Derivatives against Various Cancer Cell Lines” (Molecules, 2022) are described below.

Molecules are shown by their SMILES.

The subject of test [1] is A549 (lung carcinoma) cells. Description: Cell Titer Glo cell viability assay, A549. The conditions noted are these: Homo sapiens, A549, 48 h, 25-300 µM, triplicate, means. The format is cell-based. Here is the method:
(§1) To determine the effect of N-acyl hydrazones and 2,5 substituted 1,3,4-oxadiazole derivatives, a dose-response curve was produced for each and every molecule based on the viability of A549 (lung carcinoma), PC-3 (prostate adenocarcinoma), and MDA-MB-231(breast adenocarcinoma) cancerous cell lines by using the Cell Titer Glo assay. The MRC-5 (lung fibroblast) cell line was used as the non-cancerous control group. For 48 h, the cytotoxic effects of novel derivatives on all of the cell lines were investigated in a dose-dependent manner.
(§2) In this study, four adherent cell lines were used: three from different cancer types and one from a regular fibroblast. The cancerous cells were human breast carcinoma (MDA-MB-231, ATCC code: HTB-26), human prostatic carcinoma (PC-3, ATCC code: CRL-1435), and human lung cancer epithelial cells (A549, ATCC code: CCL-185), while the fibroblasts in the control group were human fetal lung (MRC-5, ATCC code: CCL-171) cells. All cells were checked every few weeks for various sources of contamination.
(§3) […], MRC-5, and PC-3 cell lines were cultured in T75 flasks with high glucose DMEM medium (Pan Biotech, Aidenbach, Germany), and A549 cells were cultured with RPMI-1640 (Pan Biotech) containing 10% fetal bovine serum (Gibco, Waltham, MA, USA), 1% penicillin-streptomycin (Gibco), and 1% L-glutamine (Gibco) at 37 °C with 5% CO2. All the cells were removed from the flask with Trypsin/EDTA 0.25% (Gibco) when they reached 80% density.
(§4) To test the effect of different doses on cells, all types of cells were seeded into 96-well plates at a density of eight thousand cells in 100 µL volume per well. Cells were incubated at 37 °C with 5% CO2 for […]. After 24 h in the incubator, the medium on top of each well was discharged. All of the cells were treated with 25, 50, 100, 200, or 300 µM of fifteen N-acyl hydrazones and twelve 2,5-substituted 1,3,4-oxadiazole in a dose-increasing manner. Molecules were studied in triplicate for each concentration. To assess the viability of non-treated cells, a control group was placed in the setup with only cells and DMSO control treatments without any candidate molecules introduced. Plates were incubated for 48 h, and Cell Titer Glo reagent (Promega) was added on top of each well. Cells were then evaluated in terms of viability with the Cell Titer-Glo Luminescent Cell Viability Assay. Luminescence signals were detected with the SpectraMax i3x Multimode Detection Platform to obtain the cell viability percentages.

Test [2] has as its system MDA-MB-231 (breast adenocarcinoma) cells. Description: Cell Titer Glo cell viability assay, MDA-MB-231. The format is cell-based, human. The conditions noted are these: MDA-MB-231, 48 h, 25-300 µM, triplicate, means. Here is the method:
as §1, §2, §3, §4

The subject of test [3] is PC-3 (prostate adenocarcinoma) cells. Kind of test: Cell Titer Glo cell viability assay, PC-3. The format is cell-based, human. The conditions noted are these: PC-3, 48 h, 25-300 µM, triplicate, means. Here is the method:
as §1, §2, §3, §4
(In general: ATP-based viability assays read luminescence as a measure of living cells.)

The test system of test [4] is MRC-5 (lung fibroblast) cells. Kind of test: Cell Titer Glo cell viability assay, MRC-5 non-cancerous control. The format is cell-based. The conditions noted are these: Homo sapiens, MRC5, MRC-5 non-cancerous fibroblasts, 48 h, 25-300 µM, triplicate, means. Here is the method: as §1, §2, §3, §4
The subject of the next test is MDA-MB-231 cells. Description: Scratch assay (cell migration), MDA-MB-231. The format is cell-based, human. The conditions noted are these: 40 µM 1d, 120 µM 1e, 30 µM 2a, 0, 24, 48 h. The procedure: (§5) The dosages for MDA-MB-231 were 40 µM for 1d, 120 µM for 1e, and 30 µM for 2a. The dosages for A-549 were 55 µM for 1d, 15 µM for 1e, and 15 µM for 2a. Three photos were taken: one immediately after the application, one 24 h later, and one 48 h later. The images of each time stamp for all three molecules can be seen in Figure 4 for the A549 cell line and Figure 5 for the MDA-MB-231 cell line.
(§6) To make comparisons, each application was performed in triplicate for all three molecules; the averages and standard deviations were calculated, and the p values were calculated by considering the sample sizes.
(§7) MDA-MB-231 and A-549 cells were seeded for the scratch assay. A total of 100.000 cells were cultured in 1.5 mL complete medium per well on a 6-well plate, as detailed above. The 6-well plates were then incubated for 24 h at 37 °C. After 24 h, accumulated cells were scraped out with the tip of a 200 µL pipette. After discarding the media on top of the cells, the cells were treated for 48 h with three molecules: 1d, 1e, and 2a.
(§8) The dosages for the MDA-MB-231 cell line were 40 µM for 1d, 120 µM for 1e, and 30 µM for 2a. The dosages for the A-549 cell line were 55 µM for 1d, 15 µM for 1e, and 15 µM for 2a.
(§9) The cell states were evaluated under the microscope, and markings were made to obtain photos from the same location during the follow-up. Images of the determined reference points were captured under the microscope immediately after treatment, 24 h later, and 48 h later.

Another test has as its system A-549 cells. Description: Scratch assay (cell migration), A549. It counts as cell-based, human. The note with it: 55 µM 1d, 15 µM 1e, 15 µM 2a, 0, 24, 48 h. The procedure: as §5, §6, §7, §8, §9

The term IC50 denotes the concentration that inhibits the measured activity by half. Consider `c1ccc(Oc2ccccc2-c2nnc(-c3cccnc3)o2)cc1` [2c], for which the IC50 in test [1] worked out at 109 µM; in test [2] (Homo sapiens), 42.6 µM; in test [3] (Homo sapiens, 48 h) it was 121 µM; in test [4] it was 12.8 µM.

Take `O=C(N/N=C/c1ccccc1Oc1ccccc1)c1cccnc1` [1c]: the IC50 came to 208 µM in test [1]; 50.8 µM in test [2] (Homo sapiens); 86 µM in test [3] (Homo sapiens, 48 h); 43.5 µM in test [4].

As for `Clc1ccc(Oc2ccccc2-c2nnc(-c3ccc(Cl)cc3)o2)cc1` [2l], the IC50 in test [1] is 36.3 µM; in test [2] (Homo sapiens), 22.7 µM; in test [3] (Homo sapiens, 48 h), 38.4 µM; in test [4] it was 51.9 µM.

For the compound `N#Cc1ccc(Oc2ccccc2/C=N/NC(=O)c2ccccc2)cc1` [1f], the IC50 was found to be 36.9 µM in test [1]; 77.2 µM in test [2] (Homo sapiens); 65.9 µM in test [3] (Homo sapiens, 48 h); 56.8 µM in test [4].

With `N#Cc1ccc(Oc2ccccc2-c2nnc(-c3ccco3)o2)cc1` [2i], the IC50 in test [1] was 72.9 µM; in test [2] (Homo sapiens), 23.1 µM; in test [3] (Homo sapiens, 48 h) it was 41.4 µM; in test [4], 23.1 µM.

On to `O=C(N/N=C/c1ccccc1Oc1ccc(Cl)cc1)c1ccccc1` [1k], for which the IC50 was 122 µM in test [1]; 32.7 µM in test [2] (Homo sapiens); 46.4 µM in test [3] (Homo sapiens, 48 h); 66.9 µM in test [4].

For the compound `O=C(N/N=C/c1ccccc1Oc1ccc(Cl)cc1)c1ccc(Cl)cc1` [1l], the IC50 is 39.4 µM in test [1]; 77.7 µM in test [2] (Homo sapiens); 30.2 µM in test [3] (Homo sapiens, 48 h); 14.6 µM in test [4].

Turning to `O=C(N/N=C/c1ccccc1Oc1ccccc1)c1ccccc1` [1a], the IC50 was 28.7 µM in test [1]; 53 µM in test [2] (Homo sapiens); 47.8 µM in test [3] (Homo sapiens, 48 h); 16.9 µM in test [4].

Take `Clc1ccc(Oc2ccccc2-c2nnc(-c3cccnc3)o2)cc1` [2m]: the IC50 in test [1] worked out at 137 µM; in test [2] (Homo sapiens), 108 µM; in test [3] (Homo sapiens, 48 h), 124 µM; in test [4] it was 124 µM.

With `O=C(N/N=C/c1ccccc1Oc1ccc(Cl)cc1)c1ccco1` [1n], the IC50 in test [1] came out at 39.4 µM; in test [2] (Homo sapiens), 37.9 µM; in test [3] (Homo sapiens, 48 h), 30.4 µM; in test [4], 50.6 µM.

On to `Clc1ccc(Oc2ccccc2-c2nnc(-c3ccco3)o2)cc1` [2n], for which the IC50 in test [1] was determined as 28.8 µM; in test [2] (Homo sapiens), 30.4 µM; in test [3] (Homo sapiens, 48 h), 25.6 µM; in test [4], 35.6 µM.

As to `N#Cc1ccc(Oc2ccccc2-c2nnc(-c3ccccc3)o2)cc1` [2f], the IC50 in test [1] came out at 45.8 µM; in test [2] (Homo sapiens) it was 32.7 µM; in test [3] (Homo sapiens, 48 h), 34.2 µM; in test [4] it was 141 µM.

For `Cc1nnsc1C(=O)N/N=C/c1ccccc1Oc1ccccc1` [1e], the “Antimetastatic effect / wound healing rate, scratch assay” value in the test with MDA-MB-231 cells and with A-549 cells was “did not show a significant antimetastatic effect” each time. Moreover, the IC50 came out at 13.4 µM in test [1]; 108 µM in test [2] (Homo sapiens); 18.1 µM in test [3] (Homo sapiens, 48 h); 87 µM in test [4].

With `c1ccc(Oc2ccccc2-c2nnc(-c3ccco3)o2)cc1` [2d], the half-maximal inhibitory concentration (IC50) was 102 µM in test [1]; 78.6 µM in test [2] (Homo sapiens); 54.3 µM in test [3] (Homo sapiens, 48 h); 40.1 µM in test [4].

On to `Clc1ccc(Oc2ccccc2-c2nnc(-c3ccccc3)o2)cc1` [2k], for which the IC50 in test [1] was determined as 90 µM; in test [2] (Homo sapiens) it was 79.2 µM; in test [3] (Homo sapiens, 48 h), 65.8 µM; in test [4], 58.3 µM.

As to `N#Cc1ccc(Oc2ccccc2/C=N/NC(=O)c2ccc(Cl)cc2)cc1` [1g], the IC50 in test [1] came to 31.8 µM; in test [2] (Homo sapiens), 45.1 µM; in test [3] (Homo sapiens, 48 h), 66.5 µM; in test [4] it was 62.8 µM.

In the case of `Cc1nnsc1C(=O)N/N=C/c1ccccc1Oc1ccc(C#N)cc1` [1j], the IC50 amounted to 26.6 µM in test [1]; 25.9 µM in test [2] (Homo sapiens); 18.4 µM in test [3] (Homo sapiens, 48 h); 37.1 µM in test [4].

For the compound `N#Cc1ccc(Oc2ccccc2/C=N/NC(=O)c2cccnc2)cc1` [1h], the IC50 in test [1] worked out at 73 µM; in test [2] (Homo sapiens), 65.8 µM; in test [3] (Homo sapiens, 48 h), 78.3 µM; in test [4], 66.9 µM.

Take `N#Cc1ccc(Oc2ccccc2-c2nnc(-c3ccc(Cl)cc3)o2)cc1` [2g]: the IC50 in test [1] came to 64.8 µM; in test [2] (Homo sapiens), 55.7 µM; in test [3] (Homo sapiens, 48 h), 127 µM; in test [4] it was 16 µM.

As to `O=C(N/N=C/c1ccccc1Oc1ccc(Cl)cc1)c1cccnc1` [1m], the IC50 in test [1] was determined as 71.8 µM; in test [2] (Homo sapiens), 55.5 µM; in test [3] (Homo sapiens, 48 h), 38.1 µM; in test [4], 37.9 µM.

Consider `Cc1nnsc1C(=O)N/N=C/c1ccccc1Oc1ccc(Cl)cc1` [1o], for which the IC50 in test [1] came out at 89.7 µM; in test [2] (Homo sapiens) it was 100 µM; in test [3] (Homo sapiens, 48 h), 27 µM; in test [4] it was 7.78 µM.

`N#Cc1ccc(Oc2ccccc2/C=N/NC(=O)c2ccco2)cc1` [1i]: the IC50 in test [1] was 208 µM; in test [2] (Homo sapiens), 20.7 µM; in test [3] (Homo sapiens, 48 h), 84.6 µM; in test [4], 31.7 µM.

With `O=C(N/N=C/c1ccccc1Oc1ccccc1)c1ccc(Cl)cc1` [1b], the IC50 in test [1] came out at 72.8 µM; in test [2] (Homo sapiens) it was 138 µM; in test [3] (Homo sapiens, 48 h), 25.3 µM; in test [4] it was 24.4 µM.

Regarding `Clc1ccc(-c2nnc(-c3ccccc3Oc3ccccc3)o2)cc1` [2b], the IC50 is 152 µM in test [1]; 46.9 µM in test [2] (Homo sapiens); 82.2 µM in test [3] (Homo sapiens, 48 h); 36 µM in test [4].

Consider `O=C(N/N=C/c1ccccc1Oc1ccccc1)c1ccco1` [1d], for which the “Antimetastatic effect / wound healing rate, scratch assay” value in the test on MDA-MB-231 cells and with A-549 cells was “did not show a significant antimetastatic effect” each time. The IC50 in test [1] is 49.8 µM; in test [2] (Homo sapiens), 31.5 µM; in test [2], 31.5 µM; in test [3] (Homo sapiens, 48 h), 9.39 µM; in test [3], 9.39 µM; in test [4], 44.7 µM.

For `N#Cc1ccc(Oc2ccccc2-c2nnc(-c3cccnc3)o2)cc1` [2h], the IC50 was 78.6 µM in test [1]; 38.2 µM in test [2] (Homo sapiens); 78.2 µM in test [3] (Homo sapiens, 48 h); 23.1 µM in test [4].

In the case of `c1ccc(Oc2ccccc2-c2nnc(-c3ccccc3)o2)cc1` [2a], the “Antimetastatic effect / wound healing rate, scratch assay” value in the test on MDA-MB-231 cells and in the test on A-549 cells was “did not show a significant antimetastatic effect” each time. Moreover, the IC50 in test [1] was 29.3 µM; in test [2] (Homo sapiens) it was 24 µM; in test [3] (Homo sapiens, 48 h), 66 µM; in test [4], 74.5 µM.
